Experiments:
[1] = tested on: NIH3T3 cells expressing AcGFP-PDE5A fusions; experiment: FACS analysis of C-terminal PDE5A mutants (AcGFP-PDE5A fusions), Sildenafil vs vehicle; assay type: cell-based, mouse; details: Table 2, 24 hours; for Mean Fluorescence intensity: NIH3T3; for Stabilization ratio: fold change in GFP intensity, Sildenafil 10 μM vs vehicle alone
Method: (§1) The NIH3T3 cell line was cultured in DMEM supplemented with 10% heat-inactivated donor bovine serum (Invitrogen), 2 mM glutamine, 100 U/ml penicillin and 100 μg/ml streptomycin.
(§2) The ΦNX ecotropic packaging cell line was transfected using standard Lipofectamine 2000 protocols. Viral supernatants were harvested 48 hours, post transfection, filtered and concentrated 10-fold using Amicon Ultra centrifugal filter device with a 100kDa cutoff. NIH 3T3 cells were incubated with concentrated retroviral supernatants supplemented with 4 μg/ml polybrene for 4 hours at 37° C. Cells were washed once with PBS and cultured in growth media for 24-36 hours to allow for viral integration.
(§3) The transduced NIH3T3 cells were subjected to analysis using fluorescence-activated cell sorting (FACS) to screen the libraries of PDE5A mutants. 24 hours prior to analysis, transduced NIH3T3 cells were plated at 1×10^5 cells per well of a 12-well plate. Cells were removed from the plate using PBS and 2 mM EDTA, washed once with PBS, and resuspended in 200 μL, PBS. FACS analysis was performed on instruments at the Stanford Shared FACS Facility with 10,000 events represented.
(§4) To identify destabilizing domains that are responsive to the PDE5A ligand, Sildenafil, a cell-based screening assay was employed in which the fluorescence of green fluorescent protein derived from Aequorea coerulescens (AcGFP) served as an indicator of PDE5A stability. A library based on the PDE5A catalytic domain sequences was generated using error prone PCR and then cloned in-frame in front of AcGFP. A Moloney murine leukemia retroviral expression was used to stably integrate this library of PDE5A-AcGFP fusions into NIH-3T3 fibroblasts, and the transduced cells were subjected to three rounds of sorting using flow cytometry. In the first round, cells were treated with 10 μM of PDE5A ligand, Sildenafil for 16-24 before analysis. Fluorescent cells were collected and further cultured in the absence of ligand for 60 hours.
(§5) A library of AcGFP-PDE5A fusions i.e., C-terminal PDE5A mutants was screened using the cell-based screening assay described previously to identify C-terminal destabilizing domains. […] Identified candidates were subjected to further characterization by FACS. Cells were split into two treatment groups and incubated with either Sildenafil (10 μM) or vehicle alone for 24 hours. Cells that were mock transduced or transduced with the wild-type PDE5A construct were also included in the analysis. The stabilization ratio was calculated as the fold change in GFP intensity of the AcGFP-PDE5A construct in Sildenafil treated sample compared to vehicle alone treated sample. The results are presented in Table 2 where the C terminal PDE5A mutants are denoted as PDE5AC.
Residue D764 was identified as a mutational hotspot from sequence analysis. PDE5AC (#41) was engineered with either D764N or D764G mutation via site-directed mutagenesis. PDE5AC (#41) +D764N comprises the amino acid sequence of SEQ ID NO. 53 (encoded by SEQ ID NO. 54) and PDE5AC (#41) +D764G comprises the amino acid sequence of SEQ ID NO. 55 (encoded by SEQ ID NO. 56). AcGFP-PDE5A variants were evaluated for Sildenafil dependent stabilization via FACS as described previously. Results from FACS analysis are presented in Table 4 where the C terminal PDE5A mutants are denoted as PDE5AC. The stabilization ratio was calculated as the fold change in GFP intensity of the AcGFP-PDE5A construct in Sildenafil treated sample compared to vehicle alone treated sample.
Extended versions of human PDE5A that included residues in addition to catalytic domain (residues 535-860 of SEQ ID NO. 1) with Q589R polymorphism (SEQ ID NO. 11) were evaluated for use as C-terminal destabilizing domains. Three extended PDE5A sequences were tested that consisted of residues 535-875 of SEQ ID NO. 1 with Q589R polymorphism (SEQ ID NO. 13); residues 466-875 of SEQ ID NO. 1 with Q589R polymorphism (SEQ ID NO. 15); or residues 420-875 of SEQ ID NO. […]

PDE5A-AcGFP fusions = experiment: FACS analysis of N-terminal PDE5A mutants (PDE5A-AcGFP fusions), Sildenafil vs vehicle; assay type: cell-based, mouse; details: 24 hours; for Stabilization ratio: Sildenafil 20 μM vs vehicle alone; for Mean Fluorescence Intensity (MFI) Sildenafil (20 μM) / Mean Fluorescence Intensity (MFI) Vehicle control: NIH3T3; for Mean Fluorescence Intensity (MFI) Vehicle control: vehicle alone
Method: as §1, §2, §3, §4
as §5, with “PDE5A-AcGFP” for “AcGFP-PDE5A”, “N-terminal” for “C-terminal”, “mutants,” for “mutants”, “(20” for “(10”, “The results are presented in Table 6 where the N terminal PDE5A mutants are denoted as PDE5AN. The” for “The”, “sample.” for “sample. The results are presented in Table 2 where the C terminal PDE5A mutants are denoted as PDE5AC.”

[2] = molecular target: T1, HCT 116 cells transduced with the PDE5A DD derived GFP constructs (Homo sapiens, UniProt O76074, K633E/K795E/K852E/Q589R/T712S); experiment: Response to Tadalafil, GFP expression by FACS in HCT116; assay type: cell-based; details: 48 hrs, HCT116
T1 construct: Mutations were created in PDE5A (535-860) catalytic domain using site directed mutagenesis; expressed in transfected cells; host or cells: HCT116 (lentiviral transduction, pELNS vector, sorted on mCherry)
Outline: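 HCT116 cells stably transduced (mCherry-sorted) with lentiviral PDE5A DD–AcGFP constructs, exposed to DMSO or Tadalafil 0.01–100 μM for 48 hrs. GFP mean fluorescence by FACS; stabilization ratio = ligand vs no-ligand signal, basal expression = no-ligand signal vs parental autofluorescence.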

[3] = Sildenafil (10 μM) −, vehicle alone

Substance | Mean Fluorescence intensity ([1]; Sildenafil (10 μM) +) | Mean Fluorescence intensity [1, 3] | Stabilization ratio [1] | Stabilization ratio (PDE5A-AcGFP fusions) | Mean Fluorescence Intensity (MFI) Sildenafil (20 μM) (PDE5A-AcGFP fusions) | Mean Fluorescence Intensity (MFI) Vehicle control (PDE5A-AcGFP fusions) | Tadalafil concentrations at which stabilization ratios greater than 1 were obtained [2]
PDE5AC (#13): AcGFP fused to C-terminal DD 535-860 of PDE5A (Q589R, Y676D, L738H), SEQ ID NO. 24 | 6284 | 1076 | 5.8 |  |  |  | 
PDE5AC (#25): AcGFP fused to C-terminal DD 535-860 of PDE5A (Q541R, F559L, Q589R, H678R, I824T), SEQ ID NO. 35 | 2340 | 1452 | 1.6 |  |  |  | 
PDE5AC (#28): AcGFP fused to C-terminal DD 535-860 of PDE5A (Q589R, K591E, N609H, D764V), SEQ ID NO. 25 | 6055 | 1382 | 4.4 |  |  |  | 
PDE5AC (#43): AcGFP fused to C-terminal DD 535-860 of PDE5A (Q589R, N609H, Y676N, A762S), SEQ ID NO. 29 | 5518 | 1017 | 5.4 |  |  |  | 
PDE5AC (#69): AcGFP fused to C-terminal DD 535-860 of PDE5A (Q589R, N636S, D687A, D764N, S815C), SEQ ID NO. 30 | 6365 | 1126 | 5.6 |  |  |  | 
PDE5AN (#3): N-terminal DD 535-860 of PDE5A (Q589R, K633E, T712S, K852E, K795E), SEQ ID NO. 66, fused to AcGFP |  |  |  | 3.97 | 3335 | 839 | greater than 0.41 μM
PDE5AN (#53): N-terminal DD 535-860 of PDE5A (E536G, Q589R, C839S), SEQ ID NO. 67, fused to AcGFP |  |  |  | 2.62 | 4440 | 1697 | 

From patent US11891634B2, “PDE5A destabilizing domains” (The Board of Trustees of the Leland Stanford Junior …, priority 2017, dated 2024)
